Measurements from EP4596546A1, “SULFONAMIDE COMPOUND, AND HARMFUL-ARTHROPOD EXTERMINATION COMPOSITION CONTAINING SAME” (priority 2022, dated 2024).

Assays:
Type in all cases: in vivo
[1] = system: cotton worm (Spodoptera litura); assay: Test Method 9: sprayed cabbage seedling, third-instar larvae of cotton worm (formulation per Formulation Example 5); details: 144 h, spray 20 mL/seedling, after 6 days
Experimental: (§1) Next, Test Examples are used to show effects of the Present compounds on harmful arthropods. In the following Test Examples, the tests were carried out at 25°C.
(§2) Each test compound is made to a formulation according to a similar method to that described in the Formulation Example 5, and thereto is added water containing 0.03 v/v% of Shindain (registered trademark) to prepare a diluted solution containing a prescribed concentration of the test compound.
(§3) Cabbage (Brassicae oleracea) seedling (on the developmental stage of the third to fourth true leaf) is planted in a container, and the diluted solutions are sprayed to the seedling at a ratio of 20 mL/seedling. Thereafter, ten of third-instar larvae of cotton worm (Spodoptera litura) are released. After 6 days, the number of the surviving insects is counted, and the mortality of insects is calculated by the following equation. [formula]

[2] = system: diamondback moth (Plutella xylostella); assay: Test Method 4: sprayed cabbage, cut aerial part, second-instar larvae of diamondback moth; details: 120 h, spray 20 mL/seedling, after 5 days
Experimental: (§4) Next, Test Examples are used to show effects of the Present compounds on harmful arthropods. In the following Test Examples, the tests were carried out at 25°C. Each test compound is made to a formulation according to a similar method to that described in the Formulation Example 1, and thereto is added water containing 0.03 v/v% of Shindain (registered trademark) to prepare a diluted solution containing a prescribed concentration of the test compound. Cabbage (Brassicae oleracea) seedling (on the developmental stage of the second to third true leaf) is planted in a container, and the diluted solutions are sprayed to the seedling at a ratio of 20 mL/seedling. Thereafter, the aerial part of the seedling is cut out and then is installed into a container in which a filter paper is placed at the bottom of the container. Five of second-instar larvae of diamondback moth (Plutella xylostella) are released into the container. After 5 days, the number of the surviving insects is counted, and the mortality of insects is calculated by the following equation. [formula]

[3] = system: diamondback moth (Plutella xylostella); assay: Test Method 10: sprayed cabbage seedling, third-instar larvae of diamondback moth (formulation per Formulation Example 5); details: 120 h, spray 20 mL/seedling, after 5 days
Experimental: as §1, §2
as §3, with “diamondback moth (Plutella xylostella)” for “cotton worm (Spodoptera litura)”, “5” for “6”

[4] = system: cotton worm (Spodoptera litura); assay: Test Method 3: sprayed cabbage, cut aerial part, second-instar larvae of cotton worm; details: 120 h, spray 20 mL/seedling, after 5 days
Experimental: as §4, with “cotton worm (Spodoptera litura)” for “diamondback moth (Plutella xylostella)”

[5] = system: Western corn rootworm (Diabrotica virgifera virgifera); assay: whole plant or invertebrate; details: 120 h
Experimental: as §1
Each 1 mg of the test compounds is dissolved in 50 µL of a mixed solution consisting of 5% of polyoxyethylene sorbitan mono-cocoate and 95% of acetone by volume ratio. Thereto is added water containing 0.03% by volume of Shindain (registered trademark) to prepare a diluted solution containing a prescribed concentration of the test compound.
A young seedling of corn (Zea mays) is immersed into the diluted solution for 30 seconds. Thereafter, two seedlings are installed in a plastic petri dish (90 mm […]), and 10 of second-instar larvae of Western corn rootworm (Diabrotica virgifera virgifera) are released into the dish. After 5 days, the number of the dead insects is counted, and the mortality of insects is calculated by the following equation. Mortality (%) = (Numberofdeadinsects/10) × 100 [formula]

[6] = system: German cockroach (Blattella germanica); assay: Test Method 6: coated glass vial contact test, German cockroach male adults; details: 72 h, 40 mg/m^2 on vial inner face, 3 days
Experimental: as §1
An acetone solution which is adjusted to 800 ppm of each test compound is poured into a 50 mL glass vial, and the test compound is coated uniformly on inner face of the vial so as to 40 mg/m^2 of the test compound treated, and the vial is then dried.
5 German cockroach (Blattella germanica) male adults are released into the treated vial, and the vial is then covered with lid. After the prescribed time, the state of the German cockroach is examined, and the mortality is calculated by the following equation. [formula]

[7] = system: common house mosquito (Culex pipiens pallens); assay: Test Method 12: last instar larvae of common house mosquito released into diluted solution; details: 24 h, after 1 day
Experimental: as §1
Each test compound is formulated to a test formulation according to a similar method to that described in the Formulation Example 1, and water is added in preparing for a diluted solution containing a prescribed concentration of the test compound.
Into the diluted solution, 30 last instar larvae of common house mosquito (Culex pipiens pallens) are released, and after 1 day, the state of the house mosquito larvae is examined, and the mortality is calculated by the following equation. [formula]

[8] = system: housefly (Musca domestica); assay: Test Method 8: coated glass vial contact test, housefly female adults; details: 24 h, 40 mg/m^2 on vial inner face, 1 day
Experimental: as §1
An acetone solution which is adjusted to 800 ppm of each test compound is poured into a 20 mL glass vial, and the test compound is coated uniformly on inner face of the vial so as to 40 mg/m^2 of the test compound treated, and the vial is then dried.
5 housefly (Musca domestica) female adults are released into the treated vial, and the vial is then covered with lid. After the prescribed time, the state of the housefly is examined, and the mortality is calculated by the following equation. [formula]

[9] = system: Haemaphysalis longicornis; assay: Test Method 7: coated glass vial contact test, Haemaphysalis longicornis nymphs; details: 48 h, 100 mg/m^2 on vial inner face, 2 days
Experimental: An acetone solution which is adjusted to 2000 ppm of each test compound is poured into a 20 mL glass vial, and the test compound is coated uniformly on inner face of the vial so as to 100 mg/m^2 of the test compound treated, and the vial is then dried.
5 Haemaphysalis longicornis nymphs are released into the treated vial, and the vial is then covered with lid. After the prescribed time, the state of the Haemaphysalis longicornis is examined, and the mortality is calculated by the following equation.

| SMILES | mortality at 200 ppm [1] | mortality at 500 ppm [2] | mortality at 50 ppm [3] | mortality at 200 ppm [3] | mortality at 500 ppm [4] | mortality at 200 ppm [5] | mortality at 40 mg/m2, 40 mg/m2 [6] | mortality at 3.5 ppm [7] | mortality at 40 mg/m2, 40 mg/m2 [8] | mortality at 100 mg/m2, 100 mg/m2 [9] |
| --- | --- | --- | --- | --- | --- | --- | --- | --- | --- | --- |
| CN(C)S(=O)(=O)c1c(-c2ccc(OCC(F)(F)C(F)(F)F)n(C)c2=O)nc2ccc(Br)cn12 [compound 3] | ≥ 80% | ≥ 80% | ≥ 80% | ≥ 80% | ≥ 80% | ≥ 80% | – | – | – | – |
| CNS(=O)(=O)c1c(-c2cnc(OCC(F)(F)C(F)(F)F)n(C)c2=O)nc2cc(C(F)(F)F)ccn12 [compound 10] | ≥ 80% | ≥ 80% | ≥ 80% | ≥ 80% | ≥ 80% | ≥ 80% | ≥ 80% | > 90% | ≥ 80% | – |
| CNS(=O)(=O)c1c(-c2ccc(OCC(F)(F)C(F)(F)F)n(C)c2=O)nc2ccc(C(F)(F)F)cn12 [compound 1] | ≥ 80% | ≥ 80% | ≥ 80% | ≥ 80% | ≥ 80% | – | – | > 90% | ≥ 80% | – |
| CNS(=O)(=O)c1c(-c2cnc(OCC(F)(F)C(F)(F)F)n(C)c2=O)nc2cc(I)ccn12 [compound 8] | ≥ 80% | ≥ 80% | ≥ 80% | ≥ 80% | ≥ 80% | ≥ 80% | ≥ 80% | > 90% | ≥ 80% | – |
| CNS(=O)(=O)c1c(-c2cnc(OCC(F)(F)C(F)(F)F)n(C)c2=O)nc2ccc(I)cn12 [compound 7] | ≥ 80% | ≥ 80% | ≥ 80% | ≥ 80% | ≥ 80% | ≥ 80% | – | > 90% | ≥ 80% | – |
| CCNS(=O)(=O)c1c(-c2ccc(OCC(F)(F)C(F)(F)F)n(C)c2=O)nc2ccc(Br)cn12 [compound 2] | ≥ 80% | ≥ 80% | ≥ 80% | ≥ 80% | ≥ 80% | ≥ 80% | – | – | – | – |
| CNS(=O)(=O)c1c(-n2cnc3ccc(OC(F)(F)F)cc3c2=O)nc2ccc(I)cn12 [compound 12] | ≥ 80% | ≥ 80% | ≥ 80% | ≥ 80% | ≥ 80% | ≥ 80% | – | – | – | – |
| CNS(=O)(=O)c1c(-c2cnc(OCC(F)(F)C(F)(F)F)n(C)c2=O)nc2ccc(C(F)(F)F)cn12 [compound 9] | ≥ 80% | ≥ 80% | ≥ 80% | ≥ 80% | ≥ 80% | ≥ 80% | – | > 90% | – | – |
| CNS(=O)(=O)c1c(-c2ccc(OCC(F)(F)C(F)(F)F)n(C)c2=O)nc2ccc(I)cn12 [compound 4] | ≥ 80% | ≥ 80% | ≥ 80% | ≥ 80% | ≥ 80% | ≥ 80% | – | > 90% | ≥ 80% | ≥ 80% |
| Cn1c(OCC(F)(F)C(F)(F)F)ncc(-c2nc3ccc(Br)cn3c2S(=O)(=O)NC2CC2)c1=O [compound 5] | ≥ 80% | ≥ 80% | ≥ 80% | ≥ 80% | ≥ 80% | – | ≥ 80% | > 90% | ≥ 80% | – |
| Cn1c(OCC(F)(F)C(F)(F)F)ncc(-c2nc3ccc(Br)cn3c2S(N)(=O)=O)c1=O [compound 6] | ≥ 80% | ≥ 80% | ≥ 80% | ≥ 80% | ≥ 80% | ≥ 80% | – | – | – | – |
| CN(C)S(=O)(=O)c1c(-n2cnc3ccc(OC(F)(F)F)cc3c2=O)nc2ccc(I)cn12 [compound 11] | ≥ 80% | ≥ 80% | ≥ 80% | ≥ 80% | ≥ 80% | ≥ 80% | – | – | – | – |
